Assay results as given in patent US11654136B2, “Phosphoinositide 3-kinase inhibitor with a zinc binding moiety” (Curis, Inc., priority 2011, dated 2023).
Where two headings read alike, the source gives them in different places.

Columns and labels:
[1] = system: Salmonella typhimurium TA100; conditions: for Revertants per well TA100, Mean: * positive increase
Protocol: (§1) The tester strains used in the mutagenicity assay were Salmonella typhimurium tester strains TA98 (for detecting frame-shift reverse mutation) and TA100 (for detecting point reverse mutation). The assay was conducted in both the presence and absence of S9 mixture along with concurrent vehicle (DMSO, 20 μl/well) and positive controls in duplicate using 6-well plates. […] A reproducible two-fold increase (>2× of vehicle control) of revertant colonies over the daily average control value is considered a positive response of gene mutation for each strain.
(§2) 2-nitrofluorene and sodium azide served as the positive controls in the absence of S9 for TA98 and TA100 respectively. 2-Aminoanthracene served as the positive controls in the presence of S9 for TA98 and TA100.

Raf, MEK, and ERK = experiment: Western blot of RAF-MEK-ERK pathway in H460, A375, BT-474 and H1975 cells; assay type: cell-based; conditions: 100 nM, 16 hours
Protocol: Cell extracts were prepared in the presence of SDS and 2-mercaptoethanol and resolved in polyacrylamide gels. Proteins were transferred to nitrocellulose filter and blotting was done using standard procedures with blocking solutions (Li-Cor Bioscience) containing the indicated primary antibody. Primary antibodies against p-EGFR, EGFR, p-HER2, HER2, p-HER3, HER3, p-MET, MET, p-bRaf, p-cRaf, pMEK, MEK, p-ERK, ERK and tubulin were purchased from Cell Signaling Technology. Secondary antibody conjugated with IRdye 680, 800CW were used and the signal was detected with Li-Cor Odyssey Imager.
One major limitation of PI3K inhibitors in the treatment of cancers is the activation of the RAF-MEK-ERK pathway. HDAC inhibitors are able to inhibit kinase levels in this signaling pathway in cancer cells via epigenetic modification.

[2] = system: Salmonella typhimurium TA98; experiment: Mini-Salmonella/mammalian-microsome reverse mutation assay TA98; conditions: for Revertants per well TA98, Mean: * positive increase
Protocol: as §1, §2

[3] = −S9, positive control 2.0 μg/well
[4] = −S9, positive control 0.4 μg/well
[5] = +S9, positive control 0.8 μg/well

SMILES: [N-]=[N+]=[N-] [Sodium azide, reference compound]
- Background Lawn TA100 [1, 3]: 4/4
- Revertants per well TA100, well 1 [1, 3]: >300
- Revertants per well TA100, well 2 [1, 3]: >300
- Revertants per well TA100, Mean [1, 3]: >300*

SMILES: Cc1[nH]c2ccccc2c1CCNCc1ccc(/C=C/C(=O)NO)cc1 [LBH 589, reference compound]
- Activation of Raf, MEK, and ERK (Raf, MEK, and ERK): showed similar activities in some of these Western blot assays

SMILES: O=[N+]([O-])c1ccc2c(c1)Cc1ccccc1-2 [2-nitrofluorene, reference compound]
- Background Lawn TA98 [2, 4]: 4/4
- Revertants per well TA98, well 1 [2, 4]: 55
- Revertants per well TA98, well 2 [2, 4]: 63
- Revertants per well TA98, Mean [2, 4]: 59*

SMILES: Nc1ccc2cc3ccccc3cc2c1 [2-aminoanthracene, reference compound]
- Background Lawn TA100 [1, 5]: 4/4
- Revertants per well TA100, well 1 [1, 5]: >300
- Revertants per well TA100, well 2 [1, 5]: >300
- Revertants per well TA100, Mean [1, 5]: >300*
- Background Lawn TA98 [2, 5]: 4/4
- Revertants per well TA98, well 1 [2, 5]: >300
- Revertants per well TA98, well 2 [2, 5]: >300
- Revertants per well TA98, Mean [2, 5]: >300*
